Laboratory results published in patent publication US8436210B2, “Amide compound and bacterial disease control agent for agricultural and horticultural use” (The University of Tokyo, priority 2007, dated 2013).

Key:
Burkholderia glumae [1] = test: Test Example 1: toxoflavin (toxin) production by Burkholderia glumae in LB culture; type: cell-based; settings: for toxin doses (toxoflavin) produced by bacteria as concentration of compound increased: 0, 20, 40, 60, 80 or 100 μM, shake culturing 20 hours, LB medium, FIG. 1
Description: Burkholderia glumae was inoculated into an LB culture medium (produced by BD, Difco LB Broth: containing tryptone (10.0 g), yeast extract (5.0 g), and sodium chloride (10.0 g)), and cultured at 37° C. overnight. The broth thus obtained was subjected to bacterial collection using a centrifuge, and the collected bacteria were washed with an LB culture medium twice using a fresh LB culture medium each time. A fresh LB culture medium was added to the bacteria, and then Compound (1a-3) produced in Production Example 3 was added thereto in such a manner that its final concentration became a predetermined value (i.e., 0, 20, 40, 60, 80 or 100 μM), followed by shake culturing for 20 hours. The amount of toxoflavin produced by the bacteria in the broth was obtained by the following procedure.
Each broth was filtered by a 0.22-μm membrane filter, and 1 mL of the filtrate was isolated. One mL of chloroform was added to the filtrate, followed by extraction. The thus-obtained chloroform layer was concentrated under reduced pressure, and an 80% (V/V) aqueous methanol solution was added to and dissolved in the residue. The absorbance (at 260 nm) of the solution was measured, and the toxin doses were calculated from the calibration curve, which was obtained using a chemically synthesized standard toxin.
The same test was conducted as a comparative test using the compound (comparative compound) shown by the formula below disclosed in Patent Document 1.

Burkholderia glumae [2] = test: Test Example 2: onset of Burkholderia glumae infection on rice sprayed with test liquid; type: in vivo; settings: for percentage of flower clusters with score 0 / percentage of flower clusters with score 1 / percentage of flower clusters with score 2 / percentage of flower clusters with score 3 / percentage of flower clusters with score 4 / percentage of flower clusters with score 5: Korean rice (Milyang 23), 7 days; for percentage of flower clusters with score 1: score 1 = 0.1% to 20% onset; for percentage of flower clusters with score 2: score 2 = 20% to 40% onset; for percentage of flower clusters with score 3: score 3 = 40% to 60% onset; for percentage of flower clusters with score 4: score 4 = 60% to 80% onset; for percentage of flower clusters with score 5: score 5 = 80% to 100% onset
Description: […] In a separate procedure, Burkholderia glumae were seeded to an LB culture medium and cultured overnight at 37° C., preparing an broth for infection.
Each test liquid (10 mL) was sprayed onto Korean rice (Milyang 23) raised in a hothouse until the flowering stage. The broth for infection was sprayed onto the rice one hour after the application of the test liquid. After cultivation for seven days, the onset of Burkholderia glumae infection on the rice was evaluated.
The evaluation was conducted by picking an ear from each plant, making a total of three ears. In each flower cluster (grain), the percentage of the portion that suffered from the onset of infection (i.e., the portion that turned brown) caused by the toxoflavin produced by Burkholderia glumae was visually observed and scored based on the scale shown below. The percentage of the total flower clusters was obtained and scored to indicate the onset of the infection.
The percentage that suffered from the onset of infection:
Not less than 0.1% and not greater than 20%: 1
Not less than 20% and not greater than 40%: 2
Not less than 40% and not greater than 60%: 3
Not less than 60% and not greater than 80%: 4
In this evaluation, three flower clusters (grains) having the same conditions were prepared, and reproducibility was confirmed by repeating the same evaluation three times. The same evaluation was also conducted as a comparative test except that water was used instead of the test liquid. Further, the same evaluation was conducted to serve as a blank except that water was used instead of both the test liquid and the broth for infection.

Burkholderia glumae [3] = test: Test Example 3: onset of Burkholderia glumae infection on rice sprayed with test liquid; type: in vivo; settings: for percentage of flower clusters with score 0: score 0 = less than 0.1% onset; for percentage of flower clusters with score 0 / percentage of flower clusters with score 1 / percentage of flower clusters with score 2 / percentage of flower clusters with score 3 / percentage of flower clusters with score 4 / percentage of flower clusters with score 5: Korean rice (Milyang 23), 7 days, infection broth sprayed 1 h after treatment; for percentage of flower clusters with score 1: score 1 = 0.1% to 20% onset; for percentage of flower clusters with score 2: score 2 = 20% to 40% onset; for percentage of flower clusters with score 3: score 3 = 40% to 60% onset; for percentage of flower clusters with score 4: score 4 = 60% to 80% onset; for percentage of flower clusters with score 5: score 5 = 80% to 100% onset
Description: Each test liquid (10 mL) was sprayed onto Korean rice ([…] 23) raised in a hothouse until the flowering stage. The broth for infection was sprayed onto the rice one hour after the application of the test liquid. After cultivation for seven days, the onset of Burkholderia glumae infection on the rice was evaluated in the same manner as in Test Example 2. The same evaluation was conducted as the comparative test in the same manner except that water was used instead of the test liquid. Further, the same evaluation was conducted to serve as a blank using water instead of both the test liquid and the broth for infection.

With `CCCCCCCCCC(=O)CC(=O)Nc1ccccc1O` [comparative compound] the “toxin doses (toxoflavin) produced by bacteria as concentration of compound increased” value (Burkholderia glumae [1]) was “almost no change” and the “control effect on bacterial infections” value (Burkholderia glumae [1]; statement in background referring to the Test Example) was “no control effect”.

For `CCCCCCCC(=O)NC1=CC(=O)CCC1` [Compound (1a-3), N-(3-oxo-cyclohexen-1-yl)octanamide], the “percentage of flower clusters with score 0” value (Burkholderia glumae [2]; 50 μM spray, score 0 = less than 0.1% of portion with onset of infection) was 73%, the “percentage of flower clusters with score 1” value (Burkholderia glumae [2]; 50 μM spray) was 20% and the “percentage of flower clusters with score 2” value (Burkholderia glumae [2]; 50 μM spray) was 6%. The “percentage of flower clusters with score 3” value (Burkholderia glumae [2]; 50 μM spray) was 1%, the “percentage of flower clusters with score 4” value (Burkholderia glumae [2]; 50 μM spray) was 0% and the “percentage of flower clusters with score 5” value (Burkholderia glumae [2]; 50 μM spray) was 0%. The “percentage of flower clusters with score 0” value (Burkholderia glumae [2]; 100 μM spray, score 0 = less than 0.1% onset) was 85%, the “percentage of flower clusters with score 1” value (Burkholderia glumae [2]; 100 μM spray) was 10% and the “percentage of flower clusters with score 2” value (Burkholderia glumae [2]; 100 μM spray) was 3%. For the same molecule, the “percentage of flower clusters with score 3” value (Burkholderia glumae [2]; 100 μM spray) was 0%, the “percentage of flower clusters with score 4” value (Burkholderia glumae [2]; 100 μM spray) was 1% and the “percentage of flower clusters with score 5” value (Burkholderia glumae [2]; 100 μM spray) was 1%. The “percentage of flower clusters with score 0” value (Burkholderia glumae [2]; 150 μM spray, score 0 = less than 0.1% onset) was 84%, the “percentage of flower clusters with score 1” value (Burkholderia glumae [2]; 150 μM spray) was 9% and the “percentage of flower clusters with score 4” value (Burkholderia glumae [2]; 150 μM spray) was 1%. The “percentage of flower clusters with score 5” value (Burkholderia glumae [2]; 150 μM spray) was 1%, the “percentage of flower clusters with score 2” value (Burkholderia glumae [2]) was 4% and the “percentage of flower clusters with score 3” value (Burkholderia glumae [2]) was 1%. For the same molecule, the “onset of Burkholderia glumae on rice” value (Burkholderia glumae [2]; test liquid sprayed onto rice, then broth for infection, Table 1 and FIG. 2) was “prevented”, the “percentage of flower clusters with score 0” value (Burkholderia glumae [3]; 50 μM spray) was 62% and the “percentage of flower clusters with score 1” value (Burkholderia glumae [3]; 50 μM spray) was 15%. The “percentage of flower clusters with score 2” value (Burkholderia glumae [3]; 50 μM spray) was 19%, the “percentage of flower clusters with score 3” value (Burkholderia glumae [3]; 50 μM spray) was 2% and the “percentage of flower clusters with score 4” value (Burkholderia glumae [3]; 50 μM spray) was 1%. For the same molecule, the “percentage of flower clusters with score 5” value (Burkholderia glumae [3]; 50 μM spray) was 1%, the “percentage of flower clusters with score 0” value (Burkholderia glumae [3]; 100 μM spray) was 82% and the “percentage of flower clusters with score 1” value (Burkholderia glumae [3]; 100 μM spray) was 9%. The “percentage of flower clusters with score 2” value (Burkholderia glumae [3]; 100 μM spray) was 7%, the “percentage of flower clusters with score 3” value (Burkholderia glumae [3]; 100 μM spray) was 1% and the “percentage of flower clusters with score 4” value (Burkholderia glumae [3]; 100 μM spray) was 1%. For the same molecule, the “percentage of flower clusters with score 5” value (Burkholderia glumae [3]; 100 μM spray) was 0%, the “percentage of flower clusters with score 0” value (Burkholderia glumae [3]; 150 μM spray) was 89% and the “percentage of flower clusters with score 1” value (Burkholderia glumae [3]; 150 μM spray) was 8%. For the same molecule, the “percentage of flower clusters with score 3” value (Burkholderia glumae [3]; 150 μM spray) was 1%, the “percentage of flower clusters with score 2” value (Burkholderia glumae [3]) was 1% and the “percentage of flower clusters with score 4” value (Burkholderia glumae [3]) was 1%. For the same molecule, the “percentage of flower clusters with score 5” value (Burkholderia glumae [3]) was 0%, the “onset of Burkholderia glumae on rice” value (Burkholderia glumae [3]; test liquid sprayed onto rice, then broth for infection, Table 2 and FIG. 3) was “prevented” and the “toxin doses (toxoflavin) produced by bacteria as concentration of compound increased” value (Burkholderia glumae [1]) was “remarkably decreased”.
